Values belong to the molecule of their own block, whether it stands above or below them.
Assays:
[1] = tested on: human gastric cancer NUGC-4-18.2 xenografts; experiment: In vivo efficacy, xenograft, cisplatin as reference; set-up: species or system nude mice; conditions: i.v., 6 mg/kg qw×3, day 20
Protocol: 2) In this experiment, nude mice with human gastric cancer NUGC-4-18.2 xenografts were used. When the tumor volume reached about 120 mm^3 (day 6 after inoculation), 64 animals with bulky xenografts were selected and divided into eight groups (on day 0) with tumor volume balancing among groups. Eight animals in individual groups were intravenously administered 0.9% sodium chloride injection (0.9% INJ NS, vehicle control group), SYJS001-ADC at 1, 2 and 4 mg/kg (qw×3), SYJS001-ADC at 4 and 8 mg/kg (single dose), SYJS001-mAb at 4 mg/kg (qw×3) and Cisplatin at 6 mg/kg (qw×3, once a week for 3 weeks), respectively. Tumor diameters were measured twice a week. Mice were weighed, and data were recorded. Tumor growth was dynamically observed by measuring tumor diameters at different times after dosing. At the end of the experiment on day 20, the mice were asphyxiated with carbon dioxide, and the tumors were peeled and weighed.

[2] = tested on: human pancreatic cancer Bxpc3-18.2 xenografts; experiment: In vivo efficacy, xenograft, gemcitabine as reference; set-up: species or system nude mice; conditions: i.v., 50 mg/kg biw×4, day 28
Protocol: 1) In this experiment, nude mice with human pancreatic cancer Bxpc3-18.2 xenografts were used. When the tumor volume reached about 100 mm^3 (day 39 after inoculation), 48 animals with bulky xenografts were selected and divided into six groups (on day 0) with tumor volume balancing among groups. Eight animals in individual groups were intravenously administered 0.9% sodium chloride injection (0.9% INJ NS, vehicle control group), SYJS001-ADC at 2, 4 and 8 mg/kg (single dose), SYJS001-mAb (SYJS001 nude antibody) at 8 mg/kg (single dose) and Gemcitabine (GEM) at 50 mg/kg (biw×4, twice a week for 4 weeks), respectively. Tumor diameters were measured twice a week. Mice were weighed, and data were recorded. Tumor growth was dynamically observed by measuring tumor diameters at different times after dosing. At the end of the experiment on day 28, the mice were asphyxiated with carbon dioxide, and the tumors were peeled and weighed.

[3] = biological target: human CLDN18.2 on cells (human) (UniProt P56856); experiment: flow cytometry on BxPC3-CLDN18.2 cells, ED50 comparison

Molecule: N.N.[Cl][Pt][Cl] [Cisplatin]
tumor weight suppression rate [1]: 66.5%

Molecule: Nc1ccn([C@@H]2O[C@H](CO)[C@@H](O)C2(F)F)c(=O)n1 [Gemcitabine]
tumor weight suppression rate [2]: 51.0%

fold affinity against IMAB362 [3]: 2 fold
B1: SYJS001 monoclonal antibody (antibody, human IgG1, kappa, V domains shown)
VH: EVQLSESGGALVQPGESLRLSCAASGFTFSSYAMTWVRQAPGKGLEWVSSLSGSGRSTYYAASIKGRFTISRDNSKNTLYLQMSSLRAEDTAIYYCAKSLSYYHYYFDYWGQGTLVTVSS
VL: DIQLTQSPSFLSASVGDRVPITCRASQDISNYLAWYQQKPGKAPKLLIYSASTLQSGVPSRFSGSGSGTEFTLTISSLQPEDFASYHCQQVKTYPLTFGGGTKVEIKR
